# Measured values published in patent US10952433B2, “Solutions for enhancing the effectiveness of insecticides and fungicides on living plants and related methods” (priority 2015, dated 2021).
# Like-named read-outs stand apart in the source and are kept apart here.
# Columns and labels:
# [1] = system: lepidopteran larvae: cabbage loopers (Trichoplusia ni) and beet armyworms (Spodoptera exigua); assay type: in vivo; conditions: leaf discs
# Procedure, shortened: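 Romaine lettuce leaf discs (⅝ inch) dipped about one second in treatment solution and infested with four cabbage loopers and four beet armyworms (3rd-4th instar) per container. Held dark at 15 °C, 80% RH; percent disc-area damage scored visually in 5% increments at 24, 48 and 72 h.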
# [2] = system: lepidopteran larvae: cabbage loopers (Trichoplusia ni) and beet armyworms (Spodoptera exigua); assay type: in vivo; conditions: plants
# Procedure, shortened: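 Romaine lettuce plants 2-3 inches tall were sprayed with 10 mL of insecticide (ppm) with buffer, amine oxide or buffered amine oxide at 200:1, then infested with 15 T. ni and 15 S. exigua larvae (5th-6th instar) per container. Leaf surface damage scored visually in 5% increments after 24 h.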
# [3] = insecticide + CO3 buffer 200:1, no amine oxide, PPM: Chlorantranilopril 60, Acephate 70, Methoxyfenozide 100, Spinosad 30, Permethrin 10, Indoxacarb 50
# [4] = insecticide + PO4 buffer 200:1, no amine oxide, PPM: Chlorantranilopril 60, Acephate 70, Methoxyfenozide 100, Spinosad 30, Permethrin 10, Indoxacarb 50
# [5] = insecticide + amine oxide 12, no buffer, 200:1, PPM: Chlorantranilopril 60, Acephate 70, Methoxyfenozide 100, Spinosad 30, Permethrin 10, Indoxacarb 50
# [6] = insecticide + amine oxide 1218, no buffer, 200:1, PPM: Chlorantranilopril 60, Acephate 70, Methoxyfenozide 100, Spinosad 30, Permethrin 10, Indoxacarb 50
# [7] = insecticide + buffered amine oxide system CO3, 12, 200:1, PPM: Chlorantranilopril 60, Acephate 70, Methoxyfenozide 100, Spinosad 30, Permethrin 10, Indoxacarb 50
# [8] = insecticide + buffered amine oxide system CO3, 1218, 200:1, PPM: Chlorantranilopril 60, Acephate 70, Methoxyfenozide 100, Spinosad 30, Permethrin 10, Indoxacarb 50
# [9] = insecticide + buffered amine oxide system PO4, 12, 200:1, PPM: Chlorantranilopril 60, Acephate 70, Methoxyfenozide 100, Spinosad 30, Permethrin 10, Indoxacarb 50
# [10] = insecticide + buffered amine oxide system PO4, 1218, 200:1, PPM: Chlorantranilopril 60, Acephate 70, Methoxyfenozide 100, Spinosad 30, Permethrin 10, Indoxacarb 50
# [11] = insecticide alone, highest, PPM: Chlorantranilopril 120, Acephate 140, Methoxyfenozide 200, Spinosad 60, Permethrin 20, Indoxacarb 100
# [12] = insecticide alone, increased, PPM: Chlorantranilopril 90, Acephate 105, Methoxyfenozide 150, Spinosad 45, Permethrin 15, Indoxacarb 75
# [13] = insecticide alone, PPM: Chlorantranilopril 60, Acephate 70, Methoxyfenozide 100, Spinosad 30, Permethrin 10, Indoxacarb 50
smiles,measurement,setting,value
COc1cccc(C(=O)NN(C(=O)c2cc(C)cc(C)c2)C(C)(C)C)c1C [Methoxyfenozide],Percent Lepidopteran Damage to Romaine Lettuce 24 hr,[1]; [3],96.0%
same,Percent Lepidopteran Damage to Romaine Lettuce 24 hr,[1]; [4],100.0%
same,Percent Lepidopteran Damage to Romaine Lettuce 24 hr,[1]; [5],79.5%
same,Percent Lepidopteran Damage to Romaine Lettuce 24 hr,[1]; [6],72.0%
same,Percent Lepidopteran Damage to Romaine Lettuce 24 hr,[1]; [7],42.5%
same,Percent Lepidopteran Damage to Romaine Lettuce 24 hr,[1]; [8],43.0%
same,Percent Lepidopteran Damage to Romaine Lettuce 24 hr,[1]; [9],54.5%
same,Percent Lepidopteran Damage to Romaine Lettuce 24 hr,[1]; [10],85.0%
same,Percent Lepidopteran Damage to Romaine Lettuce 24 hr,[1]; [11],100.0%
same,Percent Lepidopteran Damage to Romaine Lettuce 24 hr,[1]; [12],100.0%
same,Percent Lepidopteran Damage to Romaine Lettuce 24 hr,[1]; [13],84.0%
same,Percent Lepidopteran Damage to Romaine Lettuce 48 hr,[1]; [3],99.5%
same,Percent Lepidopteran Damage to Romaine Lettuce 48 hr,[1]; [4],100.0%
same,Percent Lepidopteran Damage to Romaine Lettuce 48 hr,[1]; [5],82.5%
same,Percent Lepidopteran Damage to Romaine Lettuce 48 hr,[1]; [6],80.5%
same,Percent Lepidopteran Damage to Romaine Lettuce 48 hr,[1]; [7],51.5%
same,Percent Lepidopteran Damage to Romaine Lettuce 48 hr,[1]; [8],67.0%
same,Percent Lepidopteran Damage to Romaine Lettuce 48 hr,[1]; [9],67.5%
same,Percent Lepidopteran Damage to Romaine Lettuce 48 hr,[1]; [10],87.0%
same,Percent Lepidopteran Damage to Romaine Lettuce 48 hr,[1]; [11],100.0%
same,Percent Lepidopteran Damage to Romaine Lettuce 48 hr,[1]; [12],100.0%
same,Percent Lepidopteran Damage to Romaine Lettuce 48 hr,[1]; [13],94.0%
same,Percent Lepidopteran Damage to Romaine Lettuce 72 hr,[1]; [3],100.0%
same,Percent Lepidopteran Damage to Romaine Lettuce 72 hr,[1]; [4],100.0%
same,Percent Lepidopteran Damage to Romaine Lettuce 72 hr,[1]; [5],87.0%
same,Percent Lepidopteran Damage to Romaine Lettuce 72 hr,[1]; [6],87.5%
same,Percent Lepidopteran Damage to Romaine Lettuce 72 hr,[1]; [7],57.0%
same,Percent Lepidopteran Damage to Romaine Lettuce 72 hr,[1]; [8],73.5%
same,Percent Lepidopteran Damage to Romaine Lettuce 72 hr,[1]; [9],73.0%
same,Percent Lepidopteran Damage to Romaine Lettuce 72 hr,[1]; [10],88.0%
same,Percent Lepidopteran Damage to Romaine Lettuce 72 hr,[1]; [11],100.0%
same,Percent Lepidopteran Damage to Romaine Lettuce 72 hr,[1]; [12],100.0%
same,Percent Lepidopteran Damage to Romaine Lettuce 72 hr,[1]; [13],96.0%
same,Percent Lepidopteran Damage to Romaine Lettuce 24 hr,[2]; [3],13.5%
same,Percent Lepidopteran Damage to Romaine Lettuce 24 hr,[2]; [4],22.0%
same,Percent Lepidopteran Damage to Romaine Lettuce 24 hr,[2]; [5],28.0%
same,Percent Lepidopteran Damage to Romaine Lettuce 24 hr,[2]; [6],13.0%
same,Percent Lepidopteran Damage to Romaine Lettuce 24 hr,[2]; [7],8.0%
same,Percent Lepidopteran Damage to Romaine Lettuce 24 hr,[2]; [8],9.0%
same,Percent Lepidopteran Damage to Romaine Lettuce 24 hr,[2]; [9],7.5%
same,Percent Lepidopteran Damage to Romaine Lettuce 24 hr,[2]; [10],4.5%
same,Percent Lepidopteran Damage to Romaine Lettuce 24 hr,[2]; [11],23.5%
same,Percent Lepidopteran Damage to Romaine Lettuce 24 hr,[2]; [12],43.0%
same,Percent Lepidopteran Damage to Romaine Lettuce 24 hr,[2]; [13],29.5%
